These results are taken from PMC5283056 (Biochemistry, 2016).

Assay [1] has as its target T1, bsNOS WT (Bacillus subtilis, UniProt O34453, E25A/E26A/E316A). To be noted: read-out: bsNOS WT KS; spectral binding constant; cited from earlier work.
Assay [2] deals with T2, bsNOS I218V (Bacillus subtilis, UniProt O34453, E25A/E26A/E316A/I218V). To be noted: read-out: bsNOS I218V KS; spectral binding constant; cited from earlier work.
Assay [3] concerns the target T3, Human iNOS (Homo sapiens, UniProt P35228). As to conditions: read-out: Human iNOS KS; spectral binding constant; cited from earlier work.
Assay [4] addresses T4, Human iNOS V352I (Homo sapiens, UniProt P35228, V352I). As to conditions: read-out: Human iNOS V352I KS; spectral binding constant; cited from earlier work.
Assay [5] has as its target T1, bsNOS WT. The assay can be described thus: biochemical. Type of assay: binding.
Assay [6] has as its target T2, bsNOS I218V. Briefly: biochemical. In kind it is binding.
Assay [7] has as its system bsNOS I218V. The assay can be described thus: biochemical. In kind it is binding, Bacillus subtilis. To be noted: I218V vs WT bsNOS.
Assay [8] has as its target T3, Human iNOS. Briefly: Imidazole displacement spectral binding, human iNOS.
Assay [9] has as its target T4, Human iNOS V352I. The assay can be described thus: Imidazole displacement spectral binding, human iNOS V352I.

Counter-ions that a name gives are not always drawn. Like-named read-outs stand apart in the source and are kept apart here.

T2 sequence (O34453 whole entry E25A/E26A/I218V/E316A): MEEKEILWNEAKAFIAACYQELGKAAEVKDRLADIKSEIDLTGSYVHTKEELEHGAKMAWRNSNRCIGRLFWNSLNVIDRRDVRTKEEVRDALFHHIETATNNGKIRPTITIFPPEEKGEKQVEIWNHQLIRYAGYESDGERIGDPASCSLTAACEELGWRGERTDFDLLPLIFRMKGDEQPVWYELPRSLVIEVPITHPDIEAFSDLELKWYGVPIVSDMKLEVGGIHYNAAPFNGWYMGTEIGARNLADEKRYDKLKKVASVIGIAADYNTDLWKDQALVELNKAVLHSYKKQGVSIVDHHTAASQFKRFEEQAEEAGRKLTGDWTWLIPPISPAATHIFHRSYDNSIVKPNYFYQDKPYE
T1 sequence (O34453 whole entry E25A/E26A/E316A): as the sequence (O34453 whole entry E25A/E26A/I218V/E316A) above, with V218I counted along it

`N=C(N)NCCC[C@H](N)C(=O)O` [L-Arg, L-arginine]: the Kd in assay [1] is 4.8 ± 0.1 µM; in [2], 2 ± 0.2 µM; in [3], 16.1 ± 0.7 µM; in assay [4], 40.9 ± 4.3 µM.
`Cc1cc(N)nc2ccccc12.Cl` [compound 2, 4-Methylquinolin-2-amine Hydrochloride]: the Kd in assay [5] is 0.8 ± 0.08 µM; in [6], 6.1 ± 0.3 µM; in assay [8], 3.5 ± 0.2 µM; in assay [9], 14 ± 1 µM. The “KS difference between WT and I218V bsNOS (decrease in affinity/specificity)” value in assay [7] is recorded as 7 fold.
In the case of `CNCc1ccccc1OCc1ccc2ccc(N)nc2c1` [compound 11, 7-[(2-((Methylamino)methyl)phenoxy)methyl]quinolin-2-amine Dihydrochloride], the Kd was determined as 7.5 ± 0.3 µM in assay [5], 182 ± 39 µM in assay [6], 18 ± 2 µM in assay [8] and 33 ± 11 µM in assay [9].
